This experiment concerns HBsAg in HBV-infected PHH. The experiment is described as follows: Cryopreserved primary human hepatocytes (PHH) HBV infection assay, extracellular HBsAg (CLIA). In kind it is cell-based. The conditions noted are these: Hepatitis B virus, Hepatocyte, 216 h, read-out: HBsAg IC50, Cryopreserved PHH infected with HBV, 9 days post-compound treatment, extracellular HBsAg. Put shortly: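 Cryopreserved PHH were infected with 5.8×10^6 HBV genome equivalents in medium with 4% PEG8000 and 1% DMSO. After 9 days of treatment, extracellular HBsAg was measured by CLIA, and IC50 was derived from a 4-parameter logistic fit.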

In the case of `O=c1cc(-c2ccc(Br)cc2OCCO[C@H]2C[C@@H](C(=O)O)C2)oc2c(Cl)cccc12` [Example C003-A, Cis-3-[2-[5-bromo-2-(8-chloro-4-oxo-chromen-2-yl)phenoxy]ethoxy]cyclobutanecarboxylic acid], the IC50 – broadly, the concentration needed to halve the response being measured – is 8.77 µM.

The record behind these values is patent publication US11708344B2, “Flavone derivatives for the treatment and prophylaxis of hepatitis B virus disease” (Hoffmann-La Roche Inc., priority 2018, dated 2023).
